The values below come from patent US11046712B2, “Glycosidase inhibitors” (Asceneuron SA, priority 2014, dated 2021).

The target of the first assay is His-Tagged hOGA (human O-GlcNAcase) (Homo sapiens (Human), UniProt O60502). As to the kind of experiment: Human O-GlcNAcase enzyme inhibition assay (Example B01). Format: biochemical.
Sequence of His-Tagged hOGA (human O-GlcNAcase) (O60502 whole entry): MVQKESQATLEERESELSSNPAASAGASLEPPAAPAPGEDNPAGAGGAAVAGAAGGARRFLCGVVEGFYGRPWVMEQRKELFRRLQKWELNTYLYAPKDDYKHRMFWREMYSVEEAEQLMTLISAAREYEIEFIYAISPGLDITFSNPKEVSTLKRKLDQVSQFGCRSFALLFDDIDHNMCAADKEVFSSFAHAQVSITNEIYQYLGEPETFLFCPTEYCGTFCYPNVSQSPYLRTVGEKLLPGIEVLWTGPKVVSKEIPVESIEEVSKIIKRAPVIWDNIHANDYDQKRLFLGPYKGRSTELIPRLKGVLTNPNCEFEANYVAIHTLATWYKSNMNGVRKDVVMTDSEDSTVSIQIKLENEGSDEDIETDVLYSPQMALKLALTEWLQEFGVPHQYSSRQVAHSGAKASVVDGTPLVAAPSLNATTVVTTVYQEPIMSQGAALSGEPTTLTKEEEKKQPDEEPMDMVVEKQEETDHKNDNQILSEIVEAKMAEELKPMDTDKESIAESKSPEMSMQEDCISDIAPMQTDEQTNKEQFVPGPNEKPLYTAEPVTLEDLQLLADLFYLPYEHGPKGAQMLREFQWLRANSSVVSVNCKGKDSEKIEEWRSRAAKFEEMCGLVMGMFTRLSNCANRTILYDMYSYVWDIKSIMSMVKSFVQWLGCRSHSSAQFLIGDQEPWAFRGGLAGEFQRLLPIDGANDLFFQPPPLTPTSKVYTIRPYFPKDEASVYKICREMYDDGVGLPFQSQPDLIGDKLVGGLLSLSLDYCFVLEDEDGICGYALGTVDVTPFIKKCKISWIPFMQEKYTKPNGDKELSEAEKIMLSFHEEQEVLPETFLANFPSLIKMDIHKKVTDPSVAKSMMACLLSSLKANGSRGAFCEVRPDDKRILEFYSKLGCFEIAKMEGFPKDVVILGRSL
Conditions: not given
With `CC(=O)Nc1cnc(N2CCN(C(C)c3ccc4c(c3)OCC4)CC2)nc1` (racemic) [Example 129], the “OGA inhibitor activity, in words” value is reported as “very potent OGA inhibitors”. The same measure, in the same setting: as for `CC(=O)Nc1cnc(N2CCN(C(C)c3ccc4c(c3)OCO4)CC2)nc1` (racemic) [Example 72, N-(2-(4-(1-(benzordlH,31dioxol-5-yl)ethyl)piperazin-1-yl)pyrimidin-5-yl)acetamide], the entry is “very potent OGA inhibitors”.

On to `C[C@@H](c1ccc2c(c1)OCCO2)N1CCN(c2ncccn2)CC1` (single isomer, unassigned) [Example 34, (R)-2-(4-(1-(2,3-Dihydrobenzorbiri,41dioxin-6-yl)ethyl)piperazin-1-yl)pyrimidine or (S)-2-(4-(1-(2,3-Dihydrobenzorbiri^1dioxin-6-yl)ethyl)piperazin-1-yl)pyrimidine], for which the “OGA inhibitor activity, in words” value is “very potent OGA inhibitors”. Still for that read-out and setting: the result for `C[C@@H](c1ccc2c(c1)OCO2)N1CCN(c2nc3c(s2)CNCC3)CC1` [Example 182, (S)-2-(4-(1-(benzofdlM,31dioxol-5-yl)ethyl)piperazin-1-yl)-4,5,6,7-tetrahydrothiazoloi5,4-c1pyridine] reads “very potent OGA inhibitors”; that for `C[C@@H](c1ccc2c(c1)OCO2)N1CCN(c2ncc(C(=O)N(C)C)cn2)CC1` [Example 137], “very potent OGA inhibitors”; that for `C[C@@H](c1ccc2c(c1)OCO2)N1CCN(c2ncc(C3(O)CCCC3)cn2)CC1` [Example 181, (S)-1-(2-(4-(1-(benzofdlH,31dioxol-5-yl)ethyl)piperazin-1-yl)pyrimidin-5-yl)cyclopentan-1-ol], “very potent OGA inhibitors”. Regarding `C[C@@H](c1ccc2c(c1)OCO2)N1CCN(c2ncc(C3(O)CCCCC3)cn2)CC1` [Example 180, (S)-1-(2-(4-(1-(benzo[dl][1,31dioxol-5-yl)ethyl)piperazin-1-yl)pyrimidin-5-yl)cyclohexan-1-ol], the “OGA inhibitor activity, in words” value is reported as “very potent OGA inhibitors”.

Regarding `CC(=O)Nc1cnc(N2CCN(C(C)c3ccc4scnc4c3)CC2)nc1` (racemic) [Example 116, N-(2-(4-(1-(benzord1thiazol-5-yl)ethyl)piperazin-1-yl)pyrimidin-5-yl)acetamide], the “OGA inhibitor activity, in words” value is given as “very potent OGA inhibitors”. Turning to `Cc1ncc(N2CCN(C(C)c3ccc4c(c3)OCO4)CC2)s1` (racemic) [Example 37, 5-(4-(1-(Benzordiri,31dioxol-5-yl)ethyl)piperazin-1-yl)-2-methylthiazole], the “OGA inhibitor activity, in words” value was “very potent OGA inhibitors”. On the same count and under the same terms, the result for `CC(O)c1cnc(N2CCN([C@@H](C)c3ccc4c(c3)OCO4)CC2)nc1` (stereo in doubt) [Example 168, 1-(2-(4-((S)-1-(benzo[dl]1,31dioxol-5-yl)ethyl)piperazin-1-yl)pyrimidin-5-yl)ethan-1-ol] reads “very potent OGA inhibitors”; that for `CC(c1ccc2c(c1)OCO2)N1CCN(c2ncc(CO)cn2)CC1` (racemic) [Example 52, (2-(4-(1-(benzordiri,31 dioxol-5-yl)ethyl)piperazin-1-yl)pyrimidin-5-yl)methanol], “very potent OGA inhibitors”; that for `CC(=O)Nc1nnc(N2CCN(C(C)c3ccc4scnc4c3)CC2)s1` (racemic) [Example 114], “very potent OGA inhibitors”. Still for that read-out and setting: as for `CNC(=O)c1csc(N2CCN([C@@H](C)c3ccc4c(c3)OCO4)CC2)n1` (single isomer, unassigned) [Example 56, (/?)-2-(4-(1-(Benzordiri,31dioxol-5-yl)ethyl)piperazin-1-yl)-N-methylthiazole^4-carboxamide or ^S)-2-(4-(1-(benzordiri,31dioxol-5-yl)ethyl)piperazin-1-yl)-N-methylthiazole^4-carboxamide], the entry is “very potent OGA inhibitors”. For the molecule `CNC(=O)c1cnc(N2CCN([C@@H](C)c3ccc4c(c3)OCO4)CC2)nc1` [Example 134, (S) 2-(4-(1-(benzordiri,31dioxol-5-yl)ethyl)piperazin-1-yl)-N-methylpyrimidine-5-carboxamide], the “OGA inhibitor activity, in words” value is given as “very potent OGA inhibitors”. On the same count and under the same terms, the result for `CC(c1ccc2c(c1)OCO2)N1CCN(c2ncc(C(N)=O)s2)CC1` (racemic) [Example 48, 2-(4-(1-(Benzord1(1,3)dioxol-5-yl)ethyl)piperazin-1-yl)thiazole-5-carboxamide] reads “very potent OGA inhibitors”; that for `C[C@@H](c1ccc2c(c1)OCO2)N1CCN(c2ncc(C(C)(C)O)cn2)CC1` [Example 176, (S)-2-(2-(4-(1-(benzordiri,31dioxol-5-yl)ethyl)piperazin-1-yl)pyrimidin-5-yl)propan-2-ol], “very potent OGA inhibitors”; that for `CC(=O)Nc1nnc(N2CCN(C(C)c3ccc4c(c3)OCC4)CC2)s1` (racemic) [Example 128], “very potent OGA inhibitors”.

The same assay, now with this note: OGA IC50 (M), OGA enzyme inhibition assay; activity range classes.
Molecule `C[C@@H](c1ccc2c(c1)OCCO2)N1CCN(c2ncc(C(=O)N3CCN(C)CC3)s2)CC1` (single isomer, unassigned) [Example 74] yielded an IC50 of 1e-06 to 1e-05 M. On the same count and under the same terms, the result for `C[C@@H](c1ccc2c(c1)OCCO2)N1CCN(c2ncc(C(=O)N(C)C)s2)CC1` (single isomer, unassigned) [Example 64] reads less than 5e-08 M; that for `CNC(=O)c1cnc(N2CCN([C@@H](C)c3ccc4c(c3)OCO4)CC2)s1` (single isomer, unassigned) [Example 66], less than 5e-08 M. On the same count and under the same terms, the result for `COc1cc(C(C)N2CCN(c3nnc(NC(C)=O)s3)CC2)ccc1Cl` (racemic) [Example 88] reads 1e-06 to 1e-05 M; that for `CC(=O)Nc1cnc(N2CCN([C@H](C)c3ccc4c(c3)OCO4)CC2)nc1` (single isomer, unassigned) [Example 77], 1e-06 to 1e-05 M; that for `CNC(=O)c1cnc(N2CCN([C@@H](C)c3ccc4c(c3)OCO4)CC2)s1` (single isomer, unassigned) [Example 65], 1e-06 to 1e-05 M. On the same count and under the same terms, as for `Cc1csc(N2CCN([C@H](C)c3ccc4c(c3)OCO4)CC2)n1` (single isomer, unassigned) [Example 15, (R)-2-(4-(1-(benzordiri,31dioxol-5-yl)ethyl)piperazin-1-yl)-4-methylthiazole or (S)-2-(4-(1-(benzordiri,31 dioxol-5-yl)ethyl)piperazin-1-yl)-4-methylthiazole], the figure is 5e-08 to 2e-07 M; as for `CCNC(=O)c1cnc(N2CCN([C@@H](C)c3ccc4c(c3)OCCO4)CC2)s1` (single isomer, unassigned) [Example 62, (S)-2-(4-(1-(2,3-dihydrobenzorbiri,41dioxin-6-yl)ethyl)piperazin-1-yl)-N-ethylthiazole-5-carboxamide or (R)-2-(4-(1-(2,3-dihydrobenzorblH,41dioxin-6-yl)ethyl)piperazin-1-yl)-N-ethylthiazole-5-carboxamide], 5e-08 to 2e-07 M.

Molecule `CCNC(=O)c1cnc(N2CCN([C@@H](C)c3ccc4c(c3)OCO4)CC2)s1` (single isomer, unassigned) [Example 60] yielded an IC50 of 5e-08 to 2e-07 M. The same measure, in the same setting: as for `C[C@@H](c1ccc2c(c1)OCCO2)N1CCN(c2ncc(C(=O)N(C)C)s2)CC1` (single isomer, unassigned) [Example 63], the figure is 1e-06 to 1e-05 M. The same measure, in the same setting: as for `CC(=O)Nc1cnc(N2CCN(C(C)c3ccc4cccnc4c3)CC2)nc1` (racemic) [Example 120, N-(2-(4-(1-(quinolin-7-yl)ethyl)piperazin-1-yl)pyrimidin-5-yl)acetamide], the figure is 2e-07 to 1e-06 M; as for `CCNC(=O)c1cnc(N2CCN([C@@H](C)c3ccc4c(c3)OCO4)CC2)s1` (single isomer, unassigned) [Example 59], 1e-06 to 1e-05 M.

The same assay, now with this note: OGA enzyme inhibition assay; activity range classes; read-out: OGA IC50.
`C[C@H](O)c1cnc(N2CCN([C@@H](C)c3ccc4c(c3)OCO4)CC2)nc1` (single isomer, unassigned) [Example 198]: the IC50 was less than 5e-08 M. Same read-out and setting: the result for `C[C@@H](c1ccc2c(c1)OCCO2)N1CCN(c2ncccn2)CC1` (single isomer, unassigned) [Example 34, (R)-2-(4-(1-(2,3-Dihydrobenzorbiri,41dioxin-6-yl)ethyl)piperazin-1-yl)pyrimidine or (S)-2-(4-(1-(2,3-Dihydrobenzorbiri^1dioxin-6-yl)ethyl)piperazin-1-yl)pyrimidine] reads less than 5e-08 M; that for `CC(=O)NCc1csc(N2CCN(C(C)c3ccc4c(c3)OCO4)CC2)n1` (stereo not shown) [Example 85, N-((2-(4-(1-(benzordiri,31dioxol-5-yl)ethyl)piperazin-1-yl)thiazol-4-yl)methyl)acetamide], less than 5e-08 M; that for `C[C@@H](c1ccc2c(c1)OCO2)N1CCN(c2nc3c(s2)CN(C)CC3)CC1` [Example 194, (S)-2-(4-(1-(benzordiri,31dioxol-5-yl)ethyl)piperazin-1-yl)-5-methyl-4,5,6,7-tetrahydrothiazoloi5,4-c1pyridine], less than 5e-08 M. On the same count and under the same terms, as for `C[C@@H](c1ccc2c(c1)OCCO2)N1CCN(c2ncc(C(=O)N3CCC(O)CC3)s2)CC1` (single isomer, unassigned) [Example 81, (/?)-(2-(4-(1-(2,3-Dihydrobenzorbin,41dioxin-6-yl)ethyl)piperazin-1-yl)thiazol-5-yl)(4-hydroxypiperidin-1-yl)methanone or (S)-(2-(4-(1-(2,3-Dihydrobenzorbin,41dioxin-6-yl)ethyl)piperazin-1-yl)thiazol-5-yl)(4-hydroxypiperidin-1-yl)methanone], the figure is less than 5e-08 M; as for `CC(c1ccc2c(c1)OCO2)N1CCN(c2nc(CN)cs2)CC1` (stereo not shown) [Example 84, (2-(4-(1-(benzordin,31 dioxol-5-yl)ethyl)piperazin-1-yl)thiazol-4-yl)methanamine], 5e-08 to 2e-07 M.

Consider `CNC(=O)c1csc(N2CCN([C@@H](C)c3ccc4c(c3)OCO4)CC2)n1` (single isomer, unassigned) [Example 56, (/?)-2-(4-(1-(Benzordiri,31dioxol-5-yl)ethyl)piperazin-1-yl)-N-methylthiazole^4-carboxamide or ^S)-2-(4-(1-(benzordiri,31dioxol-5-yl)ethyl)piperazin-1-yl)-N-methylthiazole^4-carboxamide], for which the IC50 is less than 5e-08 M. Same read-out and setting: the result for `C[C@@H](c1ccc2c(c1)OCCO2)N1CCN(c2ncc(C(=O)N(C)CCN(C)C)s2)CC1` (single isomer, unassigned) [Example 71, (R)-2-(4-(1-(2,3-Dihydrobenzorb1H,41dioxin-6-yl)ethyl)piperazin-1-yl)-N-(2-(dimethylamino)ethyl)-N-methylthiazole-5-carboxamide or (S)-2-(4-(1-(2,3-dihydrobenzorbiri^1dioxin-6-yl)ethyl)piperazin-1-yl)-N-(2-(dimethylamino)ethyl)-N-methylthiazole-5-carboxamide] reads less than 5e-08 M.
